Like-named read-outs stand apart in the source and are kept apart here.
Experiments:
recombinant human HDAC6 = recombinant human HDAC6 (Homo sapiens (Human), UniProt Q9UBN7); test: Enzyme inhibitory activity assay on HDAC6; type: biochemical; details: 30 minutes preincubation at 25° C.
Description: For each test compound, 100× concentrated DMSO solutions at 8 doses were prepared and then diluted in assay buffer (25 mM Tris-HCl, pH 8, 130 mM NaCl, 0.05% Tween-20, 10% Glycerol) to obtain 5× concentrated solutions in relation to the final concentrations (typical final concentration range—6.4-200000 nM or 0.18-50000 nM, final DMSO content—1%). Then 10 μL solution of each test compound concentration were placed on a 96-well plate in triplicate and 15 μL of 3.33× concentrated enzyme solution in the assay buffer containing 3.33× concentrated BSA (final BSA concentration 1 mg/mL) and, in case of HDAC6, 3.33× concentrated TCEP (final TCEP concentration—200 μM) were added to each well. After a period of preincubation at 25° C. (30 minutes for HDAC6 and 120 minutes for HDAC1), 25 μL of solution containing the substrate were added. As substrate, FLUOR DE LYS® deacetylase substrate (Enzo Life Sciences, cat: BML-KI104, FdL), FLUOR DE LYS®-Green substrate (Enzo Life Sciences, cat: BML-KI572, FdL_G) or Boc-Lys(Tfa)-AMC (Bachem, cat: 4060676.005, Tfal)—2× concentrated solution in assay buffer were used. Following a reaction period (30 minutes at 25° C.), 50 μL of the development solution consisting of concentrate FLUOR DE LYS® developer I (Enzo Life Sciences, ca: BML-KI105), diluted 200 times in buffer (50 mM Tris-HCl, pH 8, 137 mM NaCl, 2.7 mM KCl, 1 mM MgCl2) plus 2 μM TSA was added and, after 25 minutes at room temperature in the dark, using the Victor 1420 Multilabel Counter Perkin Elmer Wallac instrument, the fluorescence reading was carried out (excitation/emission: 485/535 nM—Fluor de Lys Green, 355/460 nM—Tfal, Fluor de Lys).
Enzymatic activity on recombinant human HDAC6 and HDAC1 was evaluated (Table 2) for each synthesized compound.

[1] = system: human B cell precursor leukemia 697; test: In vitro α-tubulin acetylation in 697 cell line; type: cell-based; details: read-out: TubAc 697 cells EC50
Description: The in vitro α-tubulin acetylation was evaluated on human B cell precursor leukemia 697.
The 697 cells were maintained in RPMI Medium 1640 (Gibco, cat: 21875-034) supplemented with 10 mM HEPES (Gibco, cat: 15630-080), Pen-Strep (Penicillin 100 U/ml, Streptomycin 100 μg/ml, Gibco, cat: 15140-122) and 10% fetal bovine serum (Gibco, cat: 10270-106).
The cells were plated in 12-well plates (Costar, cat: 3512) at the density of 5.5×10^5 cells/ml.
Serial dilutions of test compounds in DMSO were prepared using 20 mM stock solutions to obtain 8 doses 200× concentrated in respect to final doses (2.7-100000 nM). Then the DMSO solutions were diluted 10× in culture medium to obtain 20× concentrated solutions which were used for cells treatment (125 μl of medium solutions were added to 2.375 ml of cells suspension). The final DMSO content was set as 0.5%. The plates were incubated at 37° C., 5% CO2 for 16 hours.
At the end of the incubation period, the cells were harvested and centrifuged for 5 minutes at 200×g and washed with 0.9% NaCl at 4° C. The resulting pellet was treated for 30 minutes at 4° C. with 100 μl Complete Lysis-M buffer containing protease inhibitors (Complete Lysis-M Roche+Complete Tablets, Mini Easypack, cat: 4719956001) and phosphatase inhibitor cocktails (PhosStop Easypack, Roche, cat: 4906837001) and then centrifuged 10 minutes at 18213×g. The protein concentration in each supernatant was determined using BCA Protein Assay Kit (Pierce, cat: 23227). The samples were diluted in PBS 1× to obtain 2 μg/ml concentration and coated in MaxiSorp 96-well plates (Nunc, cat: 442404). The plates were incubated overnight at room temperature.
Plates were washed twice with Wash Buffer (PBS 1×+0.005% tween 20) and saturated for 1 hour at room temperature with 300 μL of 1×PBS containing 10% FBS. After washing twice with Wash Buffer, the plates were incubated for 2 hours at room temperature in the presence of 100 μl/well either anti-acetylated-α-tubulin antibody (Monoclonal Anti-Tubulin, Acetylated antibody produced in mouse, Sigma-Aldrich, cat: T6793) or total anti-α-tubulin antibody (Monoclonal Anti-α-Tubulin produced in mouse, Sigma-Aldrich, cat: T6074) diluted 1:1000 in 1×PBS containing 10% FBS. Following 5 washing cycles with Wash Buffer the secondary antibody conjugated with the enzyme HRP (Goat anti-Mouse IgG, IgM, IgA (H+L), stock concentration 0.5 mg/ml, Thermo Fisher Scientific, cat: A10668), diluted 1:1000 in 1×PBS+10% FBS was added at the volume of 100 μl/well. After two hours of incubation at room temperature the plates were washed 4 times with Wash Buffer, then 100 μl/well of TMB substrate (TMB substrate kit, Thermo Fisher Scientific, cat: 34021) was added for 10 minutes at room temperature in the dark. The reaction was stopped by adding 50 μl of 2M H2SO4. The plates were read in BioTek Synergy H1 multimode microplate reader at a wavelength of 450 nm.
The measured absorbance was corrected by subtracting the mean of blank values (samples without the primary antibody). The absorbance ratios of acetyl to total tubulin assays were calculated and normalized to the reference compound (positive control) 4 parameter logistic curve, where 0% is the fitted bottom and 100% is the fitted top of the curve. The results are expressed as relative EC50.

Sequence of recombinant human HDAC6 (Q9UBN7 whole entry): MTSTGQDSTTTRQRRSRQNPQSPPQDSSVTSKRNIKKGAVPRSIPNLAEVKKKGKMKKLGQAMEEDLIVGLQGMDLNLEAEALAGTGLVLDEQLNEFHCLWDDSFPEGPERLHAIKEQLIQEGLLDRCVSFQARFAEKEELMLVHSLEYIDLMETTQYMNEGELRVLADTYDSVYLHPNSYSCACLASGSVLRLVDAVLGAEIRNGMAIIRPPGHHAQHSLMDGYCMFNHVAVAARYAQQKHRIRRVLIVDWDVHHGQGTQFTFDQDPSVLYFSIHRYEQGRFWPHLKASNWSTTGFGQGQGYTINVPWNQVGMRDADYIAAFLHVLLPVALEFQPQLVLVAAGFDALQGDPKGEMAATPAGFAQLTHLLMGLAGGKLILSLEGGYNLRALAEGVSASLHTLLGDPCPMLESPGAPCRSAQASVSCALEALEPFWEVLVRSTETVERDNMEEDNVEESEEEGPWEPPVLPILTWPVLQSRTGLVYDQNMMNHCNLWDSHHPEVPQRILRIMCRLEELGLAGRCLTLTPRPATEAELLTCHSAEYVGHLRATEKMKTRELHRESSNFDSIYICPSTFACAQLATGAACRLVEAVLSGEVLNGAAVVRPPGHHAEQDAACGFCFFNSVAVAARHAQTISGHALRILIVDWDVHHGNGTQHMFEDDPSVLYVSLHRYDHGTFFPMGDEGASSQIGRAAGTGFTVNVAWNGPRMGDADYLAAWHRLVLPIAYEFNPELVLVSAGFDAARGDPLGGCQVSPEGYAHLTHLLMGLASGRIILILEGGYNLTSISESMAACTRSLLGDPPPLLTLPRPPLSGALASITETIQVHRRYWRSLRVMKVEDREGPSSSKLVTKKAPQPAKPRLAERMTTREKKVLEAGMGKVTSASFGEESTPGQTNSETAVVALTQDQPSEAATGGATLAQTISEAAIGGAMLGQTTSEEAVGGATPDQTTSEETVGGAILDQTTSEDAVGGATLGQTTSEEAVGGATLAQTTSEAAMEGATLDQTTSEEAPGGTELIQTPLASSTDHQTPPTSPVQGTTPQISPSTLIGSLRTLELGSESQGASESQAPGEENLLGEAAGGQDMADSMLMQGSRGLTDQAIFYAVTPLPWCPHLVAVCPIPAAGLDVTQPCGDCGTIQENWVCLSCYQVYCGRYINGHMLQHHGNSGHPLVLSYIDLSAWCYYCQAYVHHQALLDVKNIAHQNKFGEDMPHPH

| IC50 (recombinant human HDAC6) [nM] | EC50 ([1]; Homo sapiens, B-cell, 16 h) [nM] | EC50 ([1]; 697 cells, 16 hours, relative EC50) [nM] | Compound |
| --- | --- | --- | --- |
| 14 | 585 | – | FC(F)c1nnc(-c2ccc(Cn3cc(-c4ccc(NC5=NCCN5)cc4)nn3)cc2)o1 [Compound 1-A] |
| – | 130 | – | Nc1nc2ccc(-c3cn(Cc4ccc(-c5nnc(C(F)F)o5)cc4F)nn3)cc2s1 [Compound 2-A] |
| 32 | 505 | – | FC(F)c1nnc(-c2ccc(Cn3cc(-c4ccccc4)nn3)nc2)o1 [Compound 13-A] |
| 22 | 476 | – | Fc1ccccc1-c1cn(Cc2ccc(-c3nnc(C(F)F)o3)cn2)nn1 [Compound 14-A] |
| 60 | 1210 | – | FC(F)c1nnc(-c2ccc(Cn3cc(-c4ccccn4)nn3)nc2)o1 [Compound 20-A] |
| 26 | 85 | – | Nc1nc2ccc(-c3cn(Cc4ccc(-c5nnc(C(F)F)o5)cc4)nn3)cc2s1 [Compound 32-A] |
| 61 | 65 | – | Nc1nc2ccc(-c3cn(Cc4ccc(-c5nnc(C(F)F)o5)cc4Cl)nn3)cc2s1 [Compound 37-A] |
| 8 | 76 | – | Nc1nc2ccc(-c3cn(Cc4ccc(-c5nnc(C(F)F)o5)cn4)nn3)cc2s1 [Compound 38-A] |
| 7 | – | 7.5 | Nc1nc2ccc(C3CN(Cc4ccc(C(=O)NNC(=O)C(F)F)s4)N=N3)cc2s1 (centres unmarked) [Compound 48-A] |

Source: patent US20260049078A1, “DIFLUORO- AND TRIFLUORO-ACETYL HYDRAZIDES AS SELECTIVE HDAC6 INHIBITORS” (ITALFARMACO S.P.A., priority 2022, published 2026)
